For one data set, the system named is PMA-induced ear swelling. Description: Topical, Phorbol Ester Mouse Ear Assay. Type of data set: in vivo, CD-1 (Crl.) derived male mice. As for the experimental part:
5-(4-Cyanophenoxy)-1-hydroxy-2,1-dihydrobenzoxaborole and betamethasone were provided by Anacor Pharmaceuticals, Inc. Betamethasone is used to treat the itching, redness, dryness, crusting, scaling, inflammation, and discomfort of various skin conditions.
Test substances were each applied topically to the right ear of the test animal 30 minutes before and 15 minutes after Phorbol 12-Myristate 13-Acetate (PMA) was applied. The dosing volume was 20 μl/ear for solvent vehicle or 20 mg/ear for cream formulations.
Male CD-1 (Crl.) derived mice weighing 24±2 g were provided by BioLasco Taiwan (under Charles River Laboratories Technology Licensee). Space allocation for 10 animals was 29×18×13 cm. Mice were housed in APEC® cages. All animals were maintained in a controlled temperature (22° C.-23° C.) and humidity (70%-80%) environment with 12 hours light dark cycles for at least one week in MDS Pharma Services—Taiwan Laboratory prior to use. Free access to standard lab chow for mice (Lab Diet, Rodent Diet, PMI Nutrition International, USA) and tap water was granted. All aspects of this work including housing, experimentation and disposal of animals were performed in general accordance with the Guide for the Care and Use of Laboratory Animals (National Academy Press, Washington, D.C., 1996).
Groups of 5 CD-1 (Crl.) derived male mice weighing 24±2 g were used. PMA ([…] in 20 μl of Acetone) was applied topically to the anterior and posterior surfaces of the right ear to each animal. Vehicle (Ethanol:Acetone/1:1, 20 μL/ear or cream, 20 mg/ear) and test substances including 5-(4-cyanophenoxy)-1-hydroxy-2,1-dihydrobenzoxaborole and betamethasone were each applied 30 minutes before and 15 minutes after PMA application. […] Ear swelling was then measured by a Dyer model micrometer gauge at 6 hours after PMA application as an index of inflammation. Percent inhibition was calculated according to the formula: ([Ic−It]/Ic)×100%, where Ic and It refer to increase of ear thickness (mm) in control and treated mice, respectively. […]

For `C[C@@H]1C[C@H]2[C@@H]3CCC4=CC(=O)C=C[C@]4(C)[C@@]3(F)[C@@H](O)C[C@]2(C)[C@@]1(O)C(=O)CO` [dexamethasone, Dexamethasone, reference compound], the “decrease in the ear swelling relative to the vehicle (Ethanol:Acetone/1:1)-treated group” value in the data set on PMA-induced ear swelling (3 mg/ear topical, positive control, 6 hours after PMA) is reported as 72%.
As for `N#Cc1ccc(Oc2ccc3c(c2)COB3O)cc1` [C17, 5-(4-Cyanophenoxy)-1,3-dihydro-1-hydroxy-2,1-benzoxaborole], the “Percent inhibition of ear swelling induced by topical phorbol ester” value in the data set on PMA-induced ear swelling (0.2 mg/ear×2 topical, 30 min before and 15 min after PMA, ear swelling measured 6 hours after PMA) was found to be 22%. Also, the “inhibition of the PMA-induced ear swelling (in words)” value in the data set on PMA-induced ear swelling (1 mg/ear×2, versus vehicle or cream placebo control) is “significant inhibition”.
Take `CN(C)c1ccc2c(c1)B(O)OC2` [C51, 6-(dimethylamino)benzo[c][1,2]oxaborol-1(3H)-ol]: the melting point (in general, the temperature, or range, at which the solid turns liquid) lay in the range of 120 to 123 °C.
`OCc1cc2c(cc1Br)COB2O` [C59, 5-bromo-6-(hydroxymethyl)benzo[c][1,2]oxaborol-1(3H)-ol] registered a melting point above 257 °C.
The same measure, in the same setting: the same measure for `Cc1ccc2c(c1)COB2O` [C8, 1,3-Dihydro-1-hydroxy-5-methyl-2,1-benzoxaborole]: 124 to 128 °C.

The values are drawn from patent publication US9682092B2, “Boron-containing small molecules as anti-inflammatory agents” (ANACOR PHARMACEUTICALS, INC., priority 2006, dated 2017).
